Results taken from US11447505B1, “Pyrrolo[2,3-b]pyridine compounds and their use in the treatment of cancer” (priority 2017, dated 2022).

Tests used:
MRCKα = MRCKα (Homo sapiens (Human), UniProt Q5VT25); assay: MRCKα kinase assay (IMAP fluorescence polarization); format: biochemical; settings: 1 μM ATP; read-out: MRCK-a Average Ki
Source text: (§1) MRCKα, MRCKβ, ROCK1 and ROCK2 Kinase Assays

ROCK1 = ROCK1 (Homo sapiens (Human), UniProt Q13464); settings: read-out: ROCK1 Average Ki; 1 μM ATP
MRCKβ = MRCKβ (Homo sapiens (Human), UniProt Q9Y5S2); assay: MRCKβ kinase assay (IMAP fluorescence polarization); format: biochemical; settings: 1 μM ATP; read-out: MRCK-B Average Ki
Source text: as §1

ROCK2 = ROCK2 (Homo sapiens (Human), UniProt O75116); assay: ROCK2 kinase assay (IMAP fluorescence polarization); format: biochemical; settings: 1 μM ATP; read-out: ROCK2 Average Ki
ROCK2, sequence (O75116 whole entry): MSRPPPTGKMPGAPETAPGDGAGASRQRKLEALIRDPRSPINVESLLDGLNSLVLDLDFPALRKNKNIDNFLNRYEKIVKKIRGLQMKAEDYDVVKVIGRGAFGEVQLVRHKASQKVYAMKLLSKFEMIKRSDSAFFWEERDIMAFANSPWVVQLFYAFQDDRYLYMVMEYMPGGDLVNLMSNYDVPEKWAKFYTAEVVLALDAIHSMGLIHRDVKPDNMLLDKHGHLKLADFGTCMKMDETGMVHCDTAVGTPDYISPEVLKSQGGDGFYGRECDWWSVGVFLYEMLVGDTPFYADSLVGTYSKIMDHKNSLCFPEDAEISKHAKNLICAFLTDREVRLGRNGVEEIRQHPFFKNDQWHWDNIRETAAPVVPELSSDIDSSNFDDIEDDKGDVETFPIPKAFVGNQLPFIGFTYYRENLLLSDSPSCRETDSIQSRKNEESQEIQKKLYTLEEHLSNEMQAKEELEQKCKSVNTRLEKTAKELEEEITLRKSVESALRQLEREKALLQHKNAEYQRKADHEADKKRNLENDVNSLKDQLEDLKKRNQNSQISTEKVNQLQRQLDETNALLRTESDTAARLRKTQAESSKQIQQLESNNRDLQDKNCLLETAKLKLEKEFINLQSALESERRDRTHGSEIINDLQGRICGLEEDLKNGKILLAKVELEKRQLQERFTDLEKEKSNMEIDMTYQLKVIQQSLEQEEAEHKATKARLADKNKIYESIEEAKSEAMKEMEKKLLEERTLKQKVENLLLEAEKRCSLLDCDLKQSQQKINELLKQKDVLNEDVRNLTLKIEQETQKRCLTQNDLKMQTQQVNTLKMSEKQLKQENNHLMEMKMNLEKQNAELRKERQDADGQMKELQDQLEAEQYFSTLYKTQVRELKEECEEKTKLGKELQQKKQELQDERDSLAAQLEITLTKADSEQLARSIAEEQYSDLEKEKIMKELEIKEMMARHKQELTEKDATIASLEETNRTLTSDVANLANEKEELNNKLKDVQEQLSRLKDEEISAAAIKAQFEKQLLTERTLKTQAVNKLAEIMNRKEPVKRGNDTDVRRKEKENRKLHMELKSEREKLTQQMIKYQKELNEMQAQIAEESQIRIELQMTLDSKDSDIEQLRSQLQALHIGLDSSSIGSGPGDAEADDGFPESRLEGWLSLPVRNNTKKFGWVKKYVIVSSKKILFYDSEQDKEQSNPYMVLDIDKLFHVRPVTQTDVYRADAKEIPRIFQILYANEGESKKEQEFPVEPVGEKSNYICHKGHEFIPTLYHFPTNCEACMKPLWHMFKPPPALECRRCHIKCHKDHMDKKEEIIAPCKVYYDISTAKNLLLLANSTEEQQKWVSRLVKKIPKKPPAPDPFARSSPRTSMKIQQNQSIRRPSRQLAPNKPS

MRCKα, sequence (Q5VT25 whole entry): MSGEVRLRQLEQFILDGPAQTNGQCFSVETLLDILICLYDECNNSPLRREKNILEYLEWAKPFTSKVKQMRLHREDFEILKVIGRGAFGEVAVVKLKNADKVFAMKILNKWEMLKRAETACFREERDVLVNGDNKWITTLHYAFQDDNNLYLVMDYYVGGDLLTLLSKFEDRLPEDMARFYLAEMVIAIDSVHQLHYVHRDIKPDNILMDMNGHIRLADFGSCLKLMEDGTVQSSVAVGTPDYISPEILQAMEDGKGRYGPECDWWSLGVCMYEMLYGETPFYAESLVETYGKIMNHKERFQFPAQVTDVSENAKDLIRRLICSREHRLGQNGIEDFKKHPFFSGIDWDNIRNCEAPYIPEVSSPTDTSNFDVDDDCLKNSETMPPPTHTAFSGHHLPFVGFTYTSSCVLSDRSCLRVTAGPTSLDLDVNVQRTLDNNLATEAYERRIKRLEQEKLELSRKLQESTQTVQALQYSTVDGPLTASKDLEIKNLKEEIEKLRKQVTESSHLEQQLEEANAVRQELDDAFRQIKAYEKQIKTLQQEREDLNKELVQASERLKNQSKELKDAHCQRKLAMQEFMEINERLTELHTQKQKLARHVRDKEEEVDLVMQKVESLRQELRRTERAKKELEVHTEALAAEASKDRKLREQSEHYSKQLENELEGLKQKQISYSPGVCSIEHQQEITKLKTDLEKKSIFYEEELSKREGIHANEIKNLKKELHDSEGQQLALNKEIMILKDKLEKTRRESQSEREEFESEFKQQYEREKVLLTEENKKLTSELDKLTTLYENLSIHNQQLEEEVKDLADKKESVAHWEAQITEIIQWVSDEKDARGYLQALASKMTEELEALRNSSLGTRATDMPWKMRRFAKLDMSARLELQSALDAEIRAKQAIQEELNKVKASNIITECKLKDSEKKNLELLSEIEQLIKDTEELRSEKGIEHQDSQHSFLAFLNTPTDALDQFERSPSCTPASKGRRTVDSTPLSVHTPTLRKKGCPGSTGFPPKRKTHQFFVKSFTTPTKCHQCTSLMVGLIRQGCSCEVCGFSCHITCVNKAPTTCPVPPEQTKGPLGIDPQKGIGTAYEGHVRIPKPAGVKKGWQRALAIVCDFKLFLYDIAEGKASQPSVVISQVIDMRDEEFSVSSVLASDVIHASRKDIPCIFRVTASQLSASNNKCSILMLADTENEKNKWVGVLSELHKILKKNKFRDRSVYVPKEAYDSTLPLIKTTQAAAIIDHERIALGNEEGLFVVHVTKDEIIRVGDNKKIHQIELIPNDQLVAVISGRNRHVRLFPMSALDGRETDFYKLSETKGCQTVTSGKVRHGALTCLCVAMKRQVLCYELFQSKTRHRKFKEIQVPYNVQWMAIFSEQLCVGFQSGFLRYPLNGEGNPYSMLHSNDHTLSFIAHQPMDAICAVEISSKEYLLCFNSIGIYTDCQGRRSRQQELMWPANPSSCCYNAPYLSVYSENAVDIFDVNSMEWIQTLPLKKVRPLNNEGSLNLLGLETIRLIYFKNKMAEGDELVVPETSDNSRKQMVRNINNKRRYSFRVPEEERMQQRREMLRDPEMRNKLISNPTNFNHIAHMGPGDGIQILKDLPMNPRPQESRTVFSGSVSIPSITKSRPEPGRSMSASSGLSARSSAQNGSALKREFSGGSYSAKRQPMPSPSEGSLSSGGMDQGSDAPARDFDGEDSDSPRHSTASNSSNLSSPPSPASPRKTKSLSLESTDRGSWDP
ROCK1, sequence (Q13464 2-1354 limits assumed): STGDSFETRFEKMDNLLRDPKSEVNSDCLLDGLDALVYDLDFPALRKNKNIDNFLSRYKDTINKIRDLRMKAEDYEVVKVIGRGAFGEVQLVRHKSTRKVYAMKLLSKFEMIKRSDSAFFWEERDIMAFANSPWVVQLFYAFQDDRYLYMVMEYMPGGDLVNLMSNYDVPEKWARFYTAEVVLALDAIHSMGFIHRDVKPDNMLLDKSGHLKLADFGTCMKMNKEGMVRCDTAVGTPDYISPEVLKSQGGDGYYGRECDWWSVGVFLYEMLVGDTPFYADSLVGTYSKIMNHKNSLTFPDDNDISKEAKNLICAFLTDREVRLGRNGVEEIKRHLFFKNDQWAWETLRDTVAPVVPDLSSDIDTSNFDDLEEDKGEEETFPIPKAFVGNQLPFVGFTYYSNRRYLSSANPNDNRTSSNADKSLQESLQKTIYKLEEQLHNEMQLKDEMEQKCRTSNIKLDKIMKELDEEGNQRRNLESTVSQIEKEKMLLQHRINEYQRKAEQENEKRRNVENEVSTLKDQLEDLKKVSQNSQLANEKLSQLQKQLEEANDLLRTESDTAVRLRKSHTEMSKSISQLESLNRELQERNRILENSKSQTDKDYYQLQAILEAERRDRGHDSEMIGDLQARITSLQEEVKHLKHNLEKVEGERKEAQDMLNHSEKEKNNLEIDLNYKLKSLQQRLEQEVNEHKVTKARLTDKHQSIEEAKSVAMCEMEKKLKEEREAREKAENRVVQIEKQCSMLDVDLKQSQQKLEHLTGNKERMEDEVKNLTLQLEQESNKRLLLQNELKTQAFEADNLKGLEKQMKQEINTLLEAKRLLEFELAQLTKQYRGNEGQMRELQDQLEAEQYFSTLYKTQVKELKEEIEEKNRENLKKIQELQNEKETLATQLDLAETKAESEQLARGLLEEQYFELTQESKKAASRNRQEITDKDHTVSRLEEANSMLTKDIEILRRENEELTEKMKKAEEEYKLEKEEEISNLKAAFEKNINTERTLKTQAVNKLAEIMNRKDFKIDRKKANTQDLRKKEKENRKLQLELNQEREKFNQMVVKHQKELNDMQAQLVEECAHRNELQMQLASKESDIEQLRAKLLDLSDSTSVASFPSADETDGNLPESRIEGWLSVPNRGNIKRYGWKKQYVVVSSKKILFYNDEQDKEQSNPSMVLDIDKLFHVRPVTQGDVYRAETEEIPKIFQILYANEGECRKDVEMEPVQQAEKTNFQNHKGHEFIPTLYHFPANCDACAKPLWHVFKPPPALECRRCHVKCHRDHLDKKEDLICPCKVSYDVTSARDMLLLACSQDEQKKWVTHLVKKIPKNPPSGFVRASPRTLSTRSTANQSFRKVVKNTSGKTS

Row | Ki (MRCKα) | Ki (ROCK1) | Ki (MRCKβ) | Ki (ROCK2) | Compound
1 | 19.7 nM | 207 nM | 36.4 nM | 102 nM | Cc1cnc2[nH]cc(-c3cn[nH]c3)c2c1N1CCCCC1 [Example E2, 5-methyl-4-(1-piperidyl)-3-(1H-pyrazol-4-yl)-1H-pyrrolo[2,3-b]pyridine]
2 | 14.2 nM | – | 40.7 nM | 516 nM | c1ncc(-c2c[nH]c3nccc(N4CCCCC4)c23)cn1 [Example E20, 4-(1-piperidyl)-3-pyrimidin-5-yl-1H-pyrrolo[2,3-b]pyridine]
3 | 12.8 nM | 24.3 nM | 5.73 nM | 20.2 nM | CN1CCCN(c2ccnc3[nH]cc(C#N)c23)CC1 [Example E30, 4-(4-methyl-1,4-diazepan-1-yl)-1H-pyrrolo[2,3-b]pyridine-3-carbonitrile]
4 | 47.9 nM | 43.6 nM | 16.7 nM | 24.1 nM | CN(C)c1ccnc2[nH]cc(C#N)c12 [Example E31, 4-(dimethylamino)-1H-pyrrolo[2,3-b]pyridine-3-carbonitrile]
5 | 14.3 nM | 57.9 nM | 9.01 nM | 16 nM | N#Cc1c[nH]c2nccc(N3CCCCC3)c12 [Example E35, 4-(1-piperidyl)-1H-pyrrolo[2,3-b]pyridine-3-carbonitrile]
6 | 82.1 nM | 90.6 nM | 78.9 nM | 65.8 nM | N#Cc1c[nH]c2nccc(N3CCCC3)c12 [Example E36, 4-pyrrolidin-1-yl-1H-pyrrolo[2,3-b]pyridine-3-carbonitrile]
7 | 125 nM | 43.8 nM | 39.9 nM | 30.3 nM | CNc1ccnc2[nH]cc(C#N)c12 [Example E37, 4-(methylamino)-1H-pyrrolo[2,3-b]pyridine-3-carbonitrile]
8 | 18.9 nM | 301 nM | 7.31 nM | 129 nM | CN[C@H]1CCCN(c2ccnc3[nH]cc(-c4cnn(C)c4)c23)C1 [Example E55, (3S)-N-methyl-1-[3-(1-methylpyrazol-4-yl)-1H-pyrrolo[2,3-b]pyridin-4-yl]piperidin-3-amine]
9 | 2.93 nM | 50700 nM | 2.34 nM | 545 nM | CN[C@H]1CCCN(c2ccnc3[nH]cc(-c4cncnc4)c23)C1 [Example E57, (3S)-N-methyl-1-(3-pyrimidin-5-yl-1H-pyrrolo[2,3-b]pyridin-4-yl)piperidin-3-amine]
10 | 0.382 nM | 55.9 nM | 1.09 nM | 36.9 nM | CNC1CCCN(c2ccnc3[nH]cc(-c4cncnc4)c23)CC1 (centres unmarked) [Example E68, N-methyl-1-(3-pyrimidin-5-yl-1H-pyrrolo[2,3-b]pyridin-4-yl)azepan-4-amine]
11 | 0.629 nM | 51100 nM | 2.98 nM | 268 nM | CN[C@H]1CCCN(c2ccnc3[nH]cc(-c4cnccn4)c23)C1 [Example E72, (3S)-N-methyl-1-(3-pyrazin-2-yl-1H-pyrrolo[2,3-b]pyridin-4-yl)piperidin-3-amine]
12 | 3.48 nM | 105 nM | 8.51 nM | 61.5 nM | CCN[C@H]1CCCN(c2ccnc3[nH]cc(-c4cnn(C)c4)c23)C1 [Example E78, (3S)-N-ethyl-1-[3-(1-methylpyrazol-4-yl)-1H-pyrrolo[2,3-b]pyridin-4-yl]piperidin-3-amine]
13 | 1.23 nM | 50700 nM | 2.27 nM | 448 nM | CCN[C@H]1CCCN(c2ccnc3[nH]cc(-c4cncnc4)c23)C1 [Example E79, (3S)-N-ethyl-1-(3-pyrimidin-5-yl-1H-pyrrolo[2,3-b]pyridin-4-yl)piperidin-3-amine]
14 | 0.935 nM | 357 nM | 3.36 nM | 184 nM | c1ncc(-c2c[nH]c3nccc(N4CCC[C@H](NC5CC5)C4)c23)cn1 [Example E81, (3S)-N-cyclopropyl-1-(3-pyrimidin-5-yl-1H-pyrrolo[2,3-b]pyridin-4-yl)piperidin-3-amine]
15 | 0.522 nM | 167 nM | 3.42 nM | 37.2 nM | CN[C@H]1CCCN(c2ccnc3[nH]cc(-c4cn[nH]c4)c23)C1 [Example E84, (3S)-N-methyl-1-[3-(1H-pyrazol-4-yl)-1H-pyrrolo[2,3-b]pyridin-4-yl]piperidin-3-amine]
16 | 4.6 nM | 8.2 nM | 1.85 nM | 10.5 nM | NCC1CCCN(c2ccnc3[nH]cc(-c4cncnc4)c23)C1 (centres unmarked) [Example E86, [1-(3-pyrimidin-5-yl-1H-pyrrolo[2,3-b]pyridin-4-yl)-3-piperidyl]methanamine]
17 | 19.4 nM | 689 nM | 6.98 nM | 395 nM | FC1CCN([C@H]2CCCN(c3ccnc4[nH]cc(-c5cncnc5)c34)C2)C1 (stereo partly drawn) [Example E95, 4-[(3S)-3-(3-fluoropyrrolidin-1-yl)-1-piperidyl]-3-pyrimidin-5-yl-1H-pyrrolo[2,3-b]pyridine]
18 | 5.2 nM | 686 nM | 3.93 nM | 366 nM | c1ncc(-c2c[nH]c3nccc(N4CCC[C@H](N5CCC5)C4)c23)cn1 [Example E97, 4-[(3S)-3-(azetidin-1-yl)-1-piperidyl]-3-pyrimidin-5-yl-1H-pyrrolo[2,3-b]pyridine]
19 | 7.9 nM | 2530 nM | 4.24 nM | 979 nM | c1ncc(-c2c[nH]c3nccc(N4CCC[C@H](N5CCCCC5)C4)c23)cn1 [Example E98, 4-[(3S)-3-(1-piperidyl)-1-piperidyl]-3-pyrimidin-5-yl-1H-pyrrolo[2,3-b]pyridine]
20 | 5.8 nM | 1680 nM | 3.81 nM | 603 nM | c1ncc(-c2c[nH]c3nccc(N4CCC[C@H](N5CCCC5)C4)c23)cn1 [Example E99, 3-pyrimidin-5-yl-4-[(3S)-3-pyrrolidin-1-yl-1-piperidyl]-1H-pyrrolo[2,3-b]pyridine]
21 | 4.6 nM | 2.77 nM | 1.44 nM | 2.44 nM | C[C@@H]1CCCN1c1ccnc2[nH]cc(C#N)c12 [Example E110, 4-[(2R)-2-methylpyrrolidin-1-yl]-1H-pyrrolo[2,3-b]pyridine-3-carbonitrile]
22 | 123 nM | 85.2 nM | 39.7 nM | 25.5 nM | C[C@H]1CCCN1c1ccnc2[nH]cc(C#N)c12 [Example E111, 4-[(2S)-2-methylpyrrolidin-1-yl]-1H-pyrrolo[2,3-b]pyridine-3-carbonitrile]
23 | – | 1210 nM | 9.73 nM | 396 nM | CCN1CCCC[C@]12CCCN(c1ccnc3[nH]cc(-c4cncnc4)c13)C2 [Example E208, (6R)-1-ethyl-8-(3-pyrimidin-5-yl-1H-pyrrolo[2,3-b]pyridin-4-yl)-1,8-diazaspiro[5.5]undecane]
24 | – | 47.8 nM | 3.86 nM | 34.7 nM | c1ncc(-c2c[nH]c3nccc(OC[C@H]4CCNC4)c23)cn1 [Example E215, 3-pyrimidin-5-yl-4-[[(3S)-pyrrolidin-3-yl]methoxy]-1H-pyrrolo[2,3-b]pyridine]
25 | – | 153 nM | 5.84 nM | 108 nM | c1ncc(-c2c[nH]c3nccc(OC4CCNCC4)c23)cn1 [Example E223, 4-(4-piperidyloxy)-3-pyrimidin-5-yl-1H-pyrrolo[2,3-b]pyridine]
26 | – | 190 nM | 11.4 nM | 140 nM | CN1CC[C@H](COc2ccnc3[nH]cc(-c4cncnc4)c23)C1 [Example E225, 4-[[(3S)-1-methylpyrrolidin-3-yl]methoxy]-3-pyrimidin-5-yl-1H-pyrrolo[2,3-b]pyridine]
27 | – | 14.2 nM | 1.02 nM | 18.4 nM | NCCC1CCN(c2ccnc3[nH]cc(-c4cncnc4)c23)CC1 [Example E238]
28 | – | 103 nM | 7.85 nM | 93.3 nM | c1ncc(-c2c[nH]c3nccc(NCC4CCCNC4)c23)cn1 (centres unmarked) [Example E239]
29 | – | 38.7 nM | 8.31 nM | 21.6 nM | N#Cc1c[nH]c2nccc(N3CCC3)c12 [Example E240]
30 | – | 543 nM | 11.9 nM | 224 nM | Cn1cc(-c2c[nH]c3nccc(N4CCC[C@](N)(N5CCC(N)CC5)C4)c23)cn1 [Example E241]

Row | Compound | Ki (MRCKα) | Ki (ROCK1) | Ki (MRCKβ) | Ki (ROCK2)
31 | N[C@H]1CCCN(c2ccnc3[nH]cc(-c4cncnc4)c23)C1 [Example E69, (3S)-1-(3-pyrimidin-5-yl-1H-pyrrolo[2,3-b]pyridin-4-yl)piperidin-3-amine] | 4.5 nM | 460 nM | 2.72 nM | 274 nM
32 | CN(C)[C@H]1CCCN(c2ccnc3[nH]cc(-c4cncnc4)c23)C1 [Example E82, (3S)-N,N-dimethyl-1-(3-pyrimidin-5-yl-1H-pyrrolo[2,3-b]pyridin-4-yl)piperidin-3-amine] | 17.2 nM | 648 nM | 13.1 nM | 362 nM
33 | c1ncc(-c2c[nH]c3nccc(O[C@@H]4CCCNC4)c23)cn1 [Example E217, 4-[[(3R)-3-piperidyl]oxy]-3-pyrimidin-5-yl-1H-pyrrolo[2,3-b]pyridine] | – | 114 nM | 4.01 nM | 77.5 nM
34 | c1ncc(-c2c[nH]c3nccc(OCC4CCCNC4)c23)cn1 (centres unmarked) [Example E220, 4-(3-piperidylmethoxy)-3-pyrimidin-5-yl-1H-pyrrolo[2,3-b]pyridine] | – | 34 nM | 1.07 nM | 40.7 nM
35 | CN1CCC[C@H](COc2ccnc3[nH]cc(-c4cncnc4)c23)C1 [Example E226, 3-pyrimidin-5-yl-4-[[(3S)-1-methyl-3-piperidyl]methoxy]-1H-pyrrolo[2,3-b]pyridine] | – | 150 nM | 5 nM | 111 nM
36 | c1ncc(-c2c[nH]c3nccc(NC4CCCNC4)c23)cn1 (centres unmarked) [Example E242] | – | 217 nM | 19.3 nM | 165 nM
